Test system: MCF7 (Human breast adenocarcinoma-derived cell line)
Assay: In vitro PDT experiment: calcein fluorescence viability observation after 405 nm pulse laser irradiation
Assay type: cell-based
Method: In vitro experiments of PDT were performed by using the following materials. Target cells: MCF7 (Human breast adenocarcinoma-derived cell line) Dish: φ35 mm glass bottom dish (non-coated) Culture medium: D-MEM-10% FBS-1% P/S-1 mM pyruvate sodium Photosensitizer: 10 μg/ml talaporfin Viability assay fluorescence reagent: 10 μg/ml calcein Firstly, dishes A and B in which MCF7 had been cultured in the culture medium described above were prepared. Into the dish A, talaporfin was not added, and the dish A was used as a control. Into the dish B, talaporfin at 10 μg/ml was added. […] After the irradiation, incubation was performed further for 18 hours, the cultured cells in each dish were washed twice with phosphate-buffered saline (PBS), substitution with 1 ml of calcein at 10 μg/ml was performed, and the cultured cells in each dish were observed.

C=Cc1c(C)c2cc3nc(c(CC(=O)N[C@@H](CC(=O)O)C(=O)O)c4[nH]c(cc5nc(cc1[nH]2)C(C)=C5CC)c(C)c4C(=O)O)[C@@H](CCC(=O)O)[C@@H]3C [talaporfin]
killing of cultured cells (calcein fluorescent image, FIG. 8 vs FIG. 7) (Experiment 1: 10 μg/ml talaporfin, 24 hours incubation, pulse laser 405 nm, 120 fs, 1 mW for 30 minutes, observed 18 hours after irradiation, compared with dish A without talaporfin): significantly killed
killing of cultured cells in parts of the dish where irradiation had not been performed (Experiment 2: 10 μg/ml talaporfin, 24 hours incubation, non-irradiated parts of dish B): not able to be confirmed
killing of cultured cells (calcein fluorescent image, FIG. 10 vs FIG. 9) (Experiment 2: 10 μg/ml talaporfin, 24 hours incubation, pulse laser 405 nm for 10 minutes, compared with dish A without talaporfin): significantly killed
killing of cultured cells (calcein fluorescent image, FIG. 12) (Experiment 3: 10 μg/ml talaporfin, 24 hours incubation, not irradiated with a pulse laser): not killed
killing of cultured cells (calcein fluorescent image, FIG. 14) (Experiment 4: 10 μg/ml talaporfin, 1.5 hours incubation, pulse laser 405 nm for 10 minutes): the cells were alive
